Measurements from paper PMC9254247, “Dual-sensitive antibacterial peptide nanoparticles prevent dental caries” (Theranostics, 2022).

Test system: S. mutans UA159 biofilm
Assay: S. mutans biofilm treatment in vitro on glass slides
Type: cell-based, Streptococcus mutans
Details: 55 μM; 10 min every 12 h, 3 times; confocal (Figure S10A-B)
Protocol: a concentration of 1×10^8 CFU/mL. pHly-1 NPs and CHX were diluted in BHI containing 1% sucrose to reach a series of concentration s and added to 96-well microplates (180 μL). Then, 2 μL S.mutans suspensions were seeded into 96-well microplates in the presence of different concentrations of pHly -1 NPs and CHX and the plate was incubated at 37 °C. After 24 h, the culture supernatants were gently discarded, and each well was rinsed three times with PBS (pH 7.0) to remove unattached bacteria. The bacterial viability was measured by methyl thiazol tetrazolium (MTT) assay. […] The MTT assay was performed to determined the minimum biofilm inhibition concentration (MBIC 50) by using the Microplate Reader at OD 490 nm 7. […]
S.mutans biofilm treatment in vitro, characterization and quantitative analysis.
Biofilms were formed on circular glass slides in a 24-well plate. […] B iofilms formed on glass slides were used for SEM, fluorescent staining and bacterial quantitative analyses. […]
For quantitative analysis9,10, after the treatment was finished, biofilms were removed from the glass slides and homogenized by water bath sonication followe d by probe sonication at an output of 7 W for 30 s (Branson Sonifier 150, Branson Ultrasonics). […] The effect of pHly- 1 NPs or CHX on biofilms was measured by counting the CFU of alive bacteria with agar plating after incubation for 48 h at 37 °C. […]

`[H]/N=C(\N/C(=N/[H])NCCCCCCNC(=N)NC(=N)Nc1ccc(Cl)cc1)Nc1ccc(Cl)cc1` [CHX, chlorhexidine] was tested. Which “suppression effect on pre-formed biofilm” value did it give?
Its value is “almost negligible”.
